The record followed here is patent US20260241012A1, “1,8-NAPHTHYRIDIN-2-ONE HETEROBIFUNCTIONAL BCL6 DEGRADERS” (Treeline Biosciences, Inc., priority 2022, published 2026).

This assay has as its target T1, N-terminal HiBiT tagged BCL6 (Homo sapiens, UniProt P41182).
T1 construct: expressed in transfected cells; host or cells: HT1080 (ATCC CCL-121), stably transduced with lentivirus pLV-UBC-N-HiBiT-BCL6-PGK-puro
Description: HiBiT based degradation assay. In kind it is cell-based. Particulars: HT1080 cells expressing N-terminal HiBiT tagged BCL6, 5 hours of incubation; for Ymin (5 hr): BCL6 degradation normalized with DMSO control; for DC50: four-parameter logistic model, read-out: EC50 (5 hr). Summed up:
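Degradation measured by luminescence from the Nano-Glo HiBiT lytic reagent (15 min, room temperature), normalized to DMSO controls and fitted to a four-parameter curve.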
A general note: With HiBiT, luminescence reflects the tagged protein that the partner subunit can reach.

As to `CNC(=O)COc1cc2cc(Nc3nc(N4CC5(CC(Nc6ccc7c(C8CCC(=O)NC8=O)nn(C)c7c6)C5)C4)ncc3Cl)cnc2n(C(C)C)c1=O` (stereo not shown) [Compound 202, 2-[[6-[[5-chloro-2-[6-[[3-(2,6-dioxo-3-piperidyl)-1-methyl-indazol-6-yl]amino]-2-azaspiro[3.3]heptan-2-yl]pyrimidin-4-yl]amino]-1-isopropyl-2-oxo-1,8-naphthyridin-3-yl]oxy]-N-methyl-acetamide], the “Ymin (5 hr)” value is given as “++++ (Ymin < 30%)” and the DC50 is below 10 nM.

For `CNC(=O)COc1cc2cc(Nc3nc(N4CCC(O)(CN5CCC(c6cccc7c(C8CCC(=O)NC8=O)nn(C)c67)CC5)CC4)ncc3Cl)cnc2n(C(C)C)c1=O` (stereo not shown) [Compound 203, 2-[[6-[[5-chloro-2-[4-[[4-[3-(2,6-dioxo-3-piperidyl)-1-methyl-indazol-7-yl]-1-piperidyl]methyl]-4-hydroxy-1-piperidyl]pyrimidin-4-yl]amino]-1-isopropyl-2-oxo-1,8-naphthyridin-3-yl]oxy]-N-methyl-acetamide], the “Ymin (5 hr)” value is “++++ (Ymin < 30%)” and the DC50 is below 10 nM.

With `CNC(=O)COc1cc2cc(Nc3nc(N4CCC5(CCC(CN6CCN(c7ccc8c(C9CCC(=O)NC9=O)nn(C)c8c7)CC6)CC5)CC4)ncc3Cl)cnc2n(C(C)C)c1=O` (stereo not shown) [Compound 204, 2-((6-((5-chloro-2-(9-((4-(3-(2,6-dioxopiperidin-3-yl)-1-methyl-1H-indazol-6-yl)piperazin-1-yl)methyl)-3-azaspiro[5.5]undecan-3-yl)pyrimidin-4-yl)amino)-1-isopropyl-2-oxo-1,2-dihydro-1,8-naphthyridin-3-yl)oxy)-N-methylacetamide], the “Ymin (5 hr)” value is reported as “++++ (Ymin < 30%)” and the DC50 lay in the range of 10 to 100 nM.

Consider `CNC(=O)COc1cc2cc(Nc3nc(N4CC5(CCC(CN6CCN(c7ccc8c(C9CCC(=O)NC9=O)nn(C)c8c7)CC6)CC5)C4)ncc3Cl)cnc2n(C(C)C)c1=O` (stereo not shown) [Compound 205, 2-((6-((5-chloro-2-(7-((4-(3-(2,6-dioxopiperidin-3-yl)-1-methyl-1H-indazol-6-yl)piperazin-1-yl)methyl)-2-azaspiro[3.5]nonan-2-yl)pyrimidin-4-yl)amino)-1-isopropyl-2-oxo-1,2-dihydro-1,8-naphthyridin-3-yl)oxy)-N-methylacetamide], for which the “Ymin (5 hr)” value was “++++ (Ymin < 30%)” and the DC50 was below 10 nM.

In the case of `CNC(=O)COc1cc2cc(Nc3nc(NC4CCC5(CC4)CN(c4ccc6c(C7CCC(=O)NC7=O)nn(C)c6c4)C5)ncc3Cl)cnc2n(C(C)C)c1=O` (stereo not shown) [Compound 206, 2-[[6-[[5-chloro-2-[[2-[3-(2,6-dioxo-3-piperidyl)-1-methyl-indazol-6-yl]-2-azaspiro[3.5]nonan-7-yl]amino]pyrimidin-4-yl]amino]-1-isopropyl-2-oxo-1,8-naphthyridin-3-yl]oxy]-N-methyl-acetamide], the “Ymin (5 hr)” value is given as “++++ (Ymin < 30%)” and the DC50 was below 10 nM.

Turning to `CNC(=O)COc1cc2cc(Nc3nc(N4CC5(CC(N(C)c6ccc7c(C8CCC(=O)NC8=O)nn(C)c7c6)C5)C4)ncc3Cl)cnc2n(C(C)C)c1=O` (stereo not shown) [Compound 207, 2-[[6-[[5-chloro-2-[6-[[3-(2,6-dioxo-3-piperidyl)-1-methyl-indazol-6-yl]-methyl-amino]-2-azaspiro[3.3]heptan-2-yl]pyrimidin-4-yl]amino]-1-isopropyl-2-oxo-1,8-naphthyridin-3-yl]oxy]-N-methyl-acetamide], the “Ymin (5 hr)” value is “+++ (30% ≤ Ymin < 50%)” and the DC50 was below 10 nM.

Consider `CNC(=O)COc1cc2cc(Nc3nc(N4CCN(CC5CCN(c6cccc7c(C8CCC(=O)NC8=O)nn(C)c67)CC5)[C@H](C(C)(C)O)C4)ncc3Cl)cnc2n(C(C)C)c1=O` (stereo partly drawn) [Compound 208a, 2-[[6-[[5-chloro-2-[(3S)-4-[[1-[3-(2,6-dioxo-3-piperidyl)-1-methyl-indazol-7-yl]-4-piperidyl]methyl]-3-(1-hydroxy-1-methyl-ethyl)piperazin-1-yl]pyrimidin-4-yl]amino]-1-isopropyl-2-oxo-1,8-naphthyridin-3-yl]oxy]-N-methyl-acetamide], for which the “Ymin (5 hr)” value was “+++ (30% ≤ Ymin < 50%)” and the DC50 was 10 to 100 nM.

`CNC(=O)COc1cc2cc(Nc3nc(N4CCN(CC5CCN(c6cccc7c(C8CCC(=O)NC8=O)nn(C)c67)CC5)[C@@H](C(C)(C)O)C4)ncc3Cl)cnc2n(C(C)C)c1=O` (stereo partly shown) [Compound 208b]: the “Ymin (5 hr)” value is listed as “++++ (Ymin < 30%)” and the DC50 lay in the range of 10 to 100 nM.

For the compound `CNC(=O)COc1cc2cc(Nc3nc(N4CCC(CN5C6CC5CN(c5cccc7c(C8CCC(=O)NC8=O)nn(C)c57)C6)CC4)ncc3Cl)cnc2n(C(C)C)c1=O` (stereo not shown) [Compound 209, 2-[[6-[[5-chloro-2-[4-[[3-[3-(2,6-dioxo-3-piperidyl)-1-methyl-indazol-7-yl]-3,6-diazabicyclo[3.1.1]heptan-6-yl]methyl]-1-piperidyl]pyrimidin-4-yl]amino]-1-isopropyl-2-oxo-1,8-naphthyridin-3-yl]oxy]-N-methyl-acetamide], the “Ymin (5 hr)” value was “+++ (30% ≤ Ymin < 50%)” and the DC50 is below 10 nM.

For the compound `CNC(=O)COc1cc2cc(Nc3nc(N4CCC(CN5CCN(c6cccc7c(C8CCC(=O)NC8=O)nn(C)c67)[C@@H](C)C5)CC4)ncc3F)cnc2n(C(C)C)c1=O` (stereo partly drawn) [Compound 210a, 2-[[6-[[2-[4-[[(3S)-4-[3-(2,6-dioxo-3-piperidyl)-1-methyl-indazol-7-yl]-3-methyl-piperazin-1-yl]methyl]-1-piperidyl]-5-fluoro-pyrimidin-4-yl]amino]-1-isopropyl-2-oxo-1,8-naphthyridin-3-yl]oxy]-N-methyl-acetamide], the “Ymin (5 hr)” value is “++++ (Ymin < 30%)” and the DC50 lay within 10 to 100 nM.

Turning to `CNC(=O)COc1cc2cc(Nc3nc(N4CCC(CN5CCN(c6cccc7c(C8CCC(=O)NC8=O)nn(C)c67)[C@H](C)C5)CC4)ncc3F)cnc2n(C(C)C)c1=O` (stereo partly drawn) [Compound 210b, 2-[[6-[[2-[4-[[(3R)-4-[3-(2,6-dioxo-3-piperidyl)-1-methyl-indazol-7-yl]-3-methyl-piperazin-1-yl]methyl]-1-piperidyl]-5-fluoro-pyrimidin-4-yl]amino]-1-isopropyl-2-oxo-1,8-naphthyridin-3-yl]oxy]-N-methyl-acetamide], the “Ymin (5 hr)” value was “++++ (Ymin < 30%)” and the DC50 fell in the range of 10 to 100 nM.

On to `CNC(=O)COc1cc2cc(Nc3nc(N4CCC(C(=O)N5CCN(c6ccc7c(C8CCC(=O)NC8=O)nn(C)c7c6)CC5)CC4)ncc3Cl)cnc2n(C(C)C)c1=O` (stereo not shown) [Compound 211, 2-[[6-[[5-chloro-2-[4-[4-[3-(2,6-dioxo-3-piperidyl)-1-methyl-indazol-6-yl]piperazine-1-carbonyl]-1-piperidyl]pyrimidin-4-yl]amino]-1-isopropyl-2-oxo-1,8-naphthyridin-3-yl]oxy]-N-methyl-acetamide], for which the “Ymin (5 hr)” value is reported as “+++ (30% ≤ Ymin < 50%)” and the DC50 was below 10 nM.

Consider `CNC(=O)COc1cc2cc(Nc3nc(N4CCC(CN5CCC(c6ccc7c(C8CCC(=O)NC8=O)nn(C)c7c6)CC5)CC4)ncc3Cl)cnc2n(C(C)C)c1=O` (stereo not shown) [Compound 212, 2-((6-((5-chloro-2-(4-((4-(3-(2,6-dioxopiperidin-3-yl)-1-methyl-1H-indazol-6-yl)piperidin-1-yl)methyl)piperidin-1-yl)pyrimidin-4-yl)amino)-1-isopropyl-2-oxo-1,2-dihydro-1,8-naphthyridin-3-yl)oxy)-N-methylacetamide], for which the “Ymin (5 hr)” value was “++++ (Ymin < 30%)” and the DC50 was below 10 nM.

Regarding `CNC(=O)COc1cc2cc(Nc3nc(N4CC5(CC(Oc6ccc7c(C8CCC(=O)NC8=O)nn(C)c7c6)C5)C4)ncc3Cl)cnc2n(C(C)C)c1=O` (stereo not shown) [Compound 213, 2-[[6-[[5-chloro-2-[6-[3-(2,6-dioxo-3-piperidyl)-1-methyl-indazol-6-yl]oxy-2-azaspiro[3.3]heptan-2-yl]pyrimidin-4-yl]amino]-1-isopropyl-2-oxo-1,8-naphthyridin-3-yl]oxy]-N-methyl-acetamide], the “Ymin (5 hr)” value is recorded as “++++ (Ymin < 30%)” and the DC50 was below 10 nM.

With `CNC(=O)COc1cc2cc(Nc3nc(N4CCC(CN5CCN(c6ccc7c(C8CCC(=O)NC8=O)nn(C)c7c6)CC5)CC4)ncc3Cl)cnc2n(C(C)C)c1=O` (stereo not shown) [Compound 214, 2-((6-((5-chloro-2-(4-((4-(3-(2,6-dioxopiperidin-3-yl)-1-methyl-1H-indazol-6-yl)piperazin-1-yl)methyl)piperidin-1-yl)pyrimidin-4-yl)amino)-1-isopropyl-2-oxo-1,2-dihydro-1,8-naphthyridin-3-yl)oxy)-N-methylacetamide], the “Ymin (5 hr)” value was “+++ (30% ≤ Ymin < 50%)” and the DC50 is below 10 nM.

As to `CNC(=O)COc1cc2cc(Nc3nc(N4CCC(CN5CCN(c6ccc7c(C8CCC(=O)NC8=O)nn(C)c7c6)C[C@H]5C)CC4)ncc3Cl)cnc2n(C(C)C)c1=O` (stereo partly drawn) [Compound 215a, 2-((6-((5-chloro-2-(4-(((2R)-4-(3-(2,6-dioxopiperidin-3-yl)-1-methyl-1H-indazol-6-yl)-2-methylpiperazin-1-yl)methyl)piperidin-1-yl)pyrimidin-4-yl)amino)-1-isopropyl-2-oxo-1,2-dihydro-1,8-naphthyridin-3-yl)oxy)-N-methylacetamide], the “Ymin (5 hr)” value is on record as “+++ (30% ≤ Ymin < 50%)” and the DC50 is below 10 nM.

For the compound `CNC(=O)COc1cc2cc(Nc3nc(N4CCC(CN5CCN(c6ccc7c(C8CCC(=O)NC8=O)nn(C)c7c6)C[C@@H]5C)CC4)ncc3Cl)cnc2n(C(C)C)c1=O` (stereo partly drawn) [Compound 215b, 2-((6-((5-chloro-2-(4-(((2S)-4-(3-(2,6-dioxopiperidin-3-yl)-1-methyl-1H-indazol-6-yl)-2-methylpiperazin-1-yl)methyl)piperidin-1-yl)pyrimidin-4-yl)amino)-1-isopropyl-2-oxo-1,2-dihydro-1,8-naphthyridin-3-yl)oxy)-N-methylacetamide], the “Ymin (5 hr)” value is on record as “+++ (30% ≤ Ymin < 50%)” and the DC50 was 10 to 100 nM.
